Test [1] relates to human aortic endothelial cells (HAEC). Conditions: for effect on thrombin stimulated vWF release: HAEC pre-treated with reagent, thrombin 1 U/ml 1 h; for effect on thrombin induced vWF release, dose response: HAEC pre-treated with increasing amounts, DEA-NONOate 10 min, DETA-NONOate 16 h, SNAP 6 h, NEM 1 h, L-NAME 16 h; for effect of peptide on thrombin induced vWF release: HAEC incubated 20 min with peptide. The method, then:
To explore the effect of NO upon granule exocytosis, thrombin induced exocytosis of Weibel-Palade bodies from human aortic endothelial cells (HAEC) which release von Willebrand's Factor (vWF) was studied. HAEC was pre-treated with an NO donor 2-(N,N-diethylamino)-diazenolate-2-oxide (DEA-NONOate) 10 mM or with DEA as a control, stimulated the cells with thrombin 1 U/ml for 1 h, and the amount of vWF released into the media was then measured. […] HAEC was then pre-treated with increasing amounts of various NO donors, including a rapidly releasing NO donor DEA-NONOate for 10 min, a slowly releasing NO donor DETA-NONOate for 16 h, or a nitrosothiol S-nitroso-penicillamine (SNAP) for 6 h; alternatively, cells were treated with NEM for 1 h.
The role of endogenous NO in the regulation of Weibel-Palade body exocytosis was then explored. HAEC was pre-treated with L-NAME for 16 h in order to inhibit endogenous NOS, and then the cells were stimulated with 1 U/ml thrombin for 1 h and vWF release was measured. […] HAEC was next pre-treated with vascular endothelial growth factor (VEGF) in order to activate endogenous NOS3. Cells were incubated with 50 ng/ml VEGF or control for 2 h, and then stimulated with thrombin.
A peptide inhibitor of NSF that crosses cell membranes was designed. This peptide, designated TAT-NSF222, includes the protein transduction domain of HIV TAT (residues 47-57) previously shown to transduce polypeptides into cells (Becker-Hapak et al., 2001), fused to a fragment of NSF (residues 222-243) previously shown to inhibit NSF (Schweizer et al., 1998). […] HAEC were then incubated for 20 min with TAT-NSF222, or with a control peptide TAT-NSF222scr that consisted of the intact TAT domain followed by the amino acid residues of NSF 222-243 in a scrambled order. HAEC were transduced with TAT-NSF peptides, treated with media or thrombin, and the amount of vWF released into the media was measured by ELISA.
Since NSF plays a general role in vesicle trafficking, permanent inactivation of NSF would slow vesicular trafficking in general. However, local production of NO at the plasma membrane and reversible nitrosylation of NSF could provide spatial regulation of NSF.
Human aortic endothelial cells (HAEC) and EGM-2 media were obtained from Clonetics (Walkersville, Md.). HAEC were pre-treated with NO donors, washed, stimulated with 1 U/mil of thrombin, and the amount of vWF released into the media was measured by an ELISA (American Diagnostica, Greenwich, Conn.). HAEC were permeabilized by incubation with 10 U/well of SLO (Sigma) in PBS pH 7.4 for 15 min at 37° C. (Walev et al., 2001). Some cells were incubated with 20-200 μg/ml of antibodies or with 100 μg/ml of recombinant NSF. Cells were then resealed by incubation with EGM-2 media for 4 h at 37° C., washed with EGM-2 media, and stimulated with thrombin as above.
The ability of TAT-NSF to affect exocytosis from cells was investigated. Endothelial cells release vWF by exocytosis when stimulated by thrombin. Accordingly, endothelial cells were incubated with increasing amounts of TAT-NSF peptides for 20 min, then treated with 1 U/ml thrombin, and the amount of vWF released into the media was measured by ELISA.
Human aortic endothelial cells (HAEC) and EGM-2 media were obtained from Clonetics (Walkersville, Md.). HAEC were pre-treated with TAT-NSF peptides for 20 min, washed, stimulated with 1 U/ml of thrombin, and the amount of vWF released into the media was measured by an ELISA (American Diagnostica, Greenwich, Conn.).

Test [2] deals with mice. The experiment in a line: platelet adherence to mesenteric venules in mice (intravital microscopy). The class given is in vivo. The method, then:
To further examine the physiological relevance of NO regulation of Weibel-Palade body exocytosis, the effect of endogenous NO upon platelet interactions with endothelial cells in vivo was measured. Platelet rolling, or transient adherence of platelets to the walls of blood vessels, is mediated by vWF released by exocytosis (Andre et al., 2000). Inhibition of endogenous NO synthesis might permit an increase in Weibel-Palade body exocytosis, an increase in released vWF, and an increase in platelet adherence to venule walls. […] Intravital microscopy was next employed to explore the effects of endogenous NO upon platelet rolling in vivo. Anesthetized mice were pre-treated or not with L-NAME, and then transfused with calcein-AM labeled platelets. The mesentery was externalized, superfused with histamine, and intravital microscopy was used to record interactions of fluorescently labeled platelets with mesenteric venules. Platelets were classified as adherent if they were transiently captured by the endothelium and then translocated in a stop-and-go fashion for a minimum of 2 seconds. […]
Measurements of platelet adherence in mice was adapted from Andre et al. (Andre et al., 2000). […] Platelet adherence was expressed as the number of adhering fluorescent cells per square millimeter of venular surface, calculated from the diameter and length of segment viewed.

Test [3] concerns mice. The experiment in a line: bleeding time in mice after tail amputation (Example 1). The class given is in vivo. Conditions: intravenous; for effect on bleeding time: tail amputated after 45 min. The method, then: To explore the physiological relevance of NSF regulation of Weibel-Palade body exocytosis, the effect of the NSF inhibitory peptide upon the bleeding time in mice was measured. Anesthetized mice were injected intravenously with saline, TAT-NSF222, or the control peptide TAT-NSF222scr; and after 45 min the distal 5 mm of tail was amputated and the bleeding time measured. […] In fact, 3 of the 6 mice treated with the TAT-NSF222 peptide had bleeding times in excess of 20 min.
Measurement of bleeding time in mice was performed as previously described (Weiss et al., 2002). Mice were anesthetized with an intramuscular injection of ketamine and xylazine, and 5 mm of the distal tip of the tail was amputated. The tail was blotted with filter paper every 5 sec until the paper was no longer stained. If the animals bled for 20 min, the experiment was stopped, and the bleeding time was recorded as 20 min.

Test [4] deals with T1, recombinant NSF (Cricetulus griseus, UniProt P18708).
T1 construct: RGS-(His)6 (N); made in house; host or cells: bacteria
T1 sequence (P18708 whole entry): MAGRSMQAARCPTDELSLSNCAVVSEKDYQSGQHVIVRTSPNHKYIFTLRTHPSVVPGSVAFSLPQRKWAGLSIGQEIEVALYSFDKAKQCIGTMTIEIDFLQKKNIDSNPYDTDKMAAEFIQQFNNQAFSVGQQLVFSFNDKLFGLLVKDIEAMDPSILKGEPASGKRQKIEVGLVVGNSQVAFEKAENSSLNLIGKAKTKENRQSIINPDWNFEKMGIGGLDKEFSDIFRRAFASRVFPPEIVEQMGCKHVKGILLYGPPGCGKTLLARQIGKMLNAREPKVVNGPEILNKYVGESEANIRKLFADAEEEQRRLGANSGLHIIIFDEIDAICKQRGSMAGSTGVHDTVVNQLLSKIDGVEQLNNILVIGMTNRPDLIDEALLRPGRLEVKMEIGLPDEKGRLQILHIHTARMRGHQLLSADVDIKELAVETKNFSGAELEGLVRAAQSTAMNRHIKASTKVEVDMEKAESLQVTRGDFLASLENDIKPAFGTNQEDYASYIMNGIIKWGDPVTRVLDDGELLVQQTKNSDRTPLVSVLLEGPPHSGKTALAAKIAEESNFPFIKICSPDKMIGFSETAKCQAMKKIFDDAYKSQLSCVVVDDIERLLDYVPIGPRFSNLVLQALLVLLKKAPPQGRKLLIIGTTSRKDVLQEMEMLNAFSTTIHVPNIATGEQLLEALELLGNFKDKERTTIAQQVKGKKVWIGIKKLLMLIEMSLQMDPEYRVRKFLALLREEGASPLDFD
The experiment in a line: NSF ATPase assay (coupled colorimetric assay). The class given is biochemical. The method, then: The effect of NO upon NSF activity was next explored, since NO inhibits Weibel-Palade body exocytosis, and since NSF regulates Weibel-Palade body exocytosis. The effect of NO upon the ATPase activity of NSF was first examined. DEA-NONOate was added to recombinant NSF, and the ATPase activity of NSF was measured.
(§1) The ATPase activity of NSF was measured by a coupled assay, in which ATP utilization is linked to the pyruvate kinase reaction, which generates pyruvate, which in turn is measured continuously with lactate dehydrogenase (Huang and Hackney, 1994). Recombinant NSF (0.2 μg/μl) was pre-treated with buffer or DEA or DEA-NONOate or NEM for 10 min at 22° C. ATPase reaction buffer (100 mM HEPES buffer, pH 7.0, 100 mM KCl, 10 mM MgCl2, 5 mM CaCl2, 10 mM ATP, 5 mM phosphoenol pyruvate, 50 U lactate dehydrogenase, and 50 U pyruvate kinase) was added to the mixture, followed by 10 μl of NADH (2 mg/ml in 1% sodium bicarbonate). The mixture was incubated for 10 min at 22° C., and the absorbance was measured at 340 nm.
The effect of the TAT-NSF peptide inhibitors upon the ability of NSF to hydrolyze ATP was measured. 10 μM TAT-NSF peptides was added to recombinant NSF, and the hydrolysis of ATP was measured. All 5 TAT-NSF peptides inhibited NSF ATPase activity (FIG. 8A). […] The effects of TAT-NSF81 (SEQ ID NO: 6) upon NSF were further defined. TAT-NSF81 (SEQ ID NO: 6) inhibits NSF ATPase activity in a dose-dependent manner with an IC50% between 1-10 μM (FIG. 8B).
as §1, with “TAT-NSF peptides” for “DEA or DEA-NONOate or NEM”

Test [5] has as its target T2, NSF disassembly of the SNARE complex (Cricetulus griseus, UniProt P18708).
T2 construct: made in house; host or cells: bacteria (NSF, alpha-SNAP); BL21 cells (GST-SNAREs)
The class given is biochemical. Conditions: recombinant NSF, α-SNAP, GST-SNAREs, ATP; TAT-NSF peptides 1 μM in Example 2.
Method: Accordingly, recombinant NSF was pre-treated with the NO donor DEA-NONOate 1 mM for 10 min. Pre-treated NSF, α-SNAP, and detergent extracts of HAEC membranes were then mixed in the presence of 0.5 mM ATP or ATP-γS. These reactions were then fractionated by sucrose density gradient ultracentrifugation, fractions were collected from the bottom of the tube, and immunoblotted with antibody to syntaxin-4.
The effect of NO upon NSF disassembly of purified, recombinant SNARE molecules was next examined. Recombinant (His)6-NSF was pre-treated or not with 1 mM DEA-NONOate for 10 min, and then mixed with and (His)6-a-SNAP and recombinant SNARE fusion polypeptides identified in endothelial cells: GST-syntaxin-4, VAMP-3, and SNAP-23. ATP or ATP-γS was added, the mixture was precipitated with glutathione-sepharose beads, and precipitated proteins were fractionated by SDS-PAGE and immunoblotted with antibody to the NSF tag.
The disassembly activity of NSF was measured by a co-precipitation assay (Pevsner et al., 1994). […] This mixture of NSF and SNARE polypeptides was then incubated in binding buffer (4 mM HEPES pH 7.4, 0.1M NaCl, 1 mM EDTA, 3.5 mM CaCl2, 3.5 mM MgCl2, and 0.5% Nonidet P-40) and glutathione-sepharose beads for 1 h at 4° C. with rotation. The beads were washed with binding buffer 4 times, mixed with SDS-PAGE sample buffer, boiled for 3 min, and analyzed by immunoblotting.
The effect of the TAT-NSF peptide inhibitors upon the ability of NSF to separate from SNARE complexes was measured. Recombinant NSF was pre-treated with 1 μM TAT-NSF peptides, and recombinant GST-SNARE polypeptides were then added, including syntaxin-4, SNAP-23, and VAMP-3. […]
The effect of TAT-NSF peptides on NSF disassembly activity was determined. […]
TAT-NSF81 (SEQ ID NO: 6) inhibition of NSF disassembly activity was also investigated. […] ATP was added, GST-SNAREs were precipitated with glutathione-sepharose, and the precipitant was analyzed for the co-precipitation of NSF.
The disassembly activity of NSF was measured by a co-precipitation assay (Pevsner et al., 1994). […]

Test [6] relates to mice. The experiment in a line: myocardial infarction (coronary ligation/reperfusion) in mice. The class given is in vivo. The method, then: The ability of the fusion peptides of the present invention to impact cardiac infraction was investigated. Mice were pre-treated intravenously with vehicle or 5 ug/mouse TAT-NSF700 (SEQ ID NO: 8) peptide 15 min prior to infarction. Myocardial infarctions were created in mice by ligation of the left anterior descending coronary artery. Myocardial ischemia was maintained for 35 minutes, and then the ligation of the coronary artery was released, and reperfusion continued for 24 h.
The mice were then sacrificed and the size of the myocardial infarction was quantitated as previously done (Jones S P, Greer J J, Kakkar A K, Ware P D, Turnage R H, Hicks M, van Haperen R, de Crom R, Kawashima S, Yokoyama M, Lefer D J. Am J Physiol Heart Circ Physiol. 2004 January; 286(1):H276-82. Epub 2003 Sep. 11.). The area at risk (AAR) was measured with Evans blue dye, the left ventricle (LV) area was measured by planimetery, and the infarct area (INF) was measured with TTC staining. There were 7 mice per group.

Consider 9 molecules from patent publication US7910111B2, “Inhibitors of N-ethylmaleimide sensitive factor” (The Johns Hopkins University, priority 2003, dated 2011).

pIC50: −log10 of the molar value. No end group written: not given here.

T2 sequence (P18708 whole entry): as above
T2 sequence (P81125 whole entry partner): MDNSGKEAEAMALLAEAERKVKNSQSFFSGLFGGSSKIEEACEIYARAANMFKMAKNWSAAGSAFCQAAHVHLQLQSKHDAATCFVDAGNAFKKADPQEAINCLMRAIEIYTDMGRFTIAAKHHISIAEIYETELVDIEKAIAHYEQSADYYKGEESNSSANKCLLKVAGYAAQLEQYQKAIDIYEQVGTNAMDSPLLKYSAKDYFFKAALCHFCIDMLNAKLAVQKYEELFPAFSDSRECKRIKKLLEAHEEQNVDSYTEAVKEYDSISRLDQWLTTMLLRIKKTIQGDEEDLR
T2 sequence (Q12846 whole entry partner): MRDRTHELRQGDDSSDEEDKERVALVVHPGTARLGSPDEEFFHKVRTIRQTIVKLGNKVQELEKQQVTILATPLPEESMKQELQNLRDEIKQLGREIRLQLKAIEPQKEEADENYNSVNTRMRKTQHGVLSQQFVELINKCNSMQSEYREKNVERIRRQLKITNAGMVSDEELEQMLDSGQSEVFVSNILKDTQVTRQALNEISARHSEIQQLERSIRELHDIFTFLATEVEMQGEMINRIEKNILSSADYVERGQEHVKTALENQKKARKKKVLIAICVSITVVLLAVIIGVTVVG
T2 sequence (Q15836 whole entry partner): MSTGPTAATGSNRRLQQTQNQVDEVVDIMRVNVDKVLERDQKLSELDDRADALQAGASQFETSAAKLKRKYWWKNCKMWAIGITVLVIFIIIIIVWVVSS
T2 sequence (O00161 whole entry partner): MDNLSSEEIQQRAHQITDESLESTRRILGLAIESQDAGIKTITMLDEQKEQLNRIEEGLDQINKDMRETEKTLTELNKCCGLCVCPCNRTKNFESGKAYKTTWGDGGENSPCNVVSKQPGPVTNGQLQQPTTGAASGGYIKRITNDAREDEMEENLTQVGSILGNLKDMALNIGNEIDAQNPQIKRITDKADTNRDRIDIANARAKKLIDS

On to `CC(=N)NCc1cccc(CN)c1` [1400W], for which the “effect on thrombin stimulated vWF release” value in test [1] is “had no effect”.

As for `NCCN(CCN)/[N+]([O-])=N/O` [DETA-NONOate, dithylenetriamine (DETA)-NONOate], the “effect on thrombin induced vWF release, dose response” value (“effect … dose response” for short) in test [1] is given as “inhibits thrombin induced vWF release”.

For `COC(=O)[C@@H](N)CCCNC(=N)N[N+](=O)[O-]` [L-NAME, L-nitroarginine-methyl-ester], in test [1], the “effect … dose response” value is reported as “increases thrombin stimulated vWF release in a dose-dependent manner” and the “effect on thrombin stimulated vWF release” value is listed as “increases the amount of vWF released”. In test [1] (L-NAME 1 mM, VEGF 50 ng/ml 2 h), the “effect on VEGF inhibition of thrombin stimulated vWF release” value is on record as “blocks the effects of VEGF treatment”. For the same molecule, in test [2] (5 mg/kg L-NAME intravenously, histamine superfusion), the “histamine induced platelet interactions with the venule wall, frequency vs non-treated mice” value is “more than double”. Further, the “time of peak platelet-venule interactions after histamine treatment” value in test [2] (L-NAME pre-treated) is 6 min.

Consider `CCN1C(=O)C=CC1=O` [NEM], for which the “effect … dose response” value in test [1] was “inhibits thrombin induced vWF release”.

For the molecule “YGRKKRRQRRR-GGG-ENSFRFLADIFPAKAFPVRFE (YGRKKRRQRRRGGGENSFRFLADIFPAKAFPVRFE; fusion peptide) [TAT-NSF222scr]”, the “effect on bleeding time” value in test [3] was “has no effect upon bleeding time”.

For the molecule “YGRKKRRQRRR-GGG-GLDKEFNSIFRRAFASRVFPPE (YGRKKRRQRRRGGGGLDKEFNSIFRRAFASRVFPPE; fusion peptide) [TAT-NSF222]”, in test [1], the “effect of peptide on thrombin induced vWF release” value is listed as “inhibits vWF release in a dose-dependent manner”. For the same molecule, in test [4] (recombinant NSF), the “effect on NSF ATPase activity” value is “inhibits both NSF ATPase activity”. Besides, the “effect on NSF disassembly activity” value in test [5] is listed as “also NSF disassembly activity”. Besides, the “mice with bleeding times in excess of 20 min” value in test [3] (45 min) is listed as 3 of the 6. Also, in test [3], the “effect on bleeding time” value was “dramatically prolongs the bleeding time”.

“YGRKKRRQRRR-GGG-LLDYVPIGPRFSNLVLQALLVL (YGRKKRRQRRRGGGLLDYVPIGPRFSNLVLQALLVL; fusion peptide) [TAT-NSF700]”: the “effect of peptide on thrombin induced vWF release” value in test [1] is “most effective at inhibiting release of vWF”. Further, the “effect on NSF ATPase activity at 10 μM peptide” value in test [4] (10 μM TAT-NSF peptides, recombinant NSF) is “more effective than the other peptides”. Moreover, the “size of the infarct” value in test [6] (mice, 5 ug/mouse i.v. 15 min prior to infarction, 35 min ischemia, 24 h reperfusion) was 44%+/−3. In test [6] (vs vehicle treated mice), the “absolute reduction in infarct size” value came out at 12% and the “relative reduction in infarct size” value stood at 21%.

As to “YGRKKRRQRRRGGGALYSFDKAKQCIGTMTIEID [TAT-NSF81]”, the pIC50 in test [1] (read-out: IC50% for inhibition of endothelial exocytosis (vWF release), HAEC, 20 min pre-treatment, thrombin 1 U/ml) is 5.00 to 6.00; in test [4] it was 5.00 to 6.00.

With “vascular endothelial growth factor [VEGF]”, in test [1], the “effect on thrombin stimulated vWF release” value is “decreases thrombin stimulated vWF release”.

What is called pIC50 is the negative decadic logarithm of the IC50, by convention in mol/L.
